# Laboratory results: publication PMC12299847, “Macroalgae-Inspired Brominated Chalcones as Cosmetic Ingredients with the Potential to Target Skin Inflammaging” (Marine Drugs, 2025)
# Key:
# [1] = test system: Nrf2; test: KeratinoSens assay, Nrf2 luciferase reporter; type: cell-based, human; settings: 24 h, compared to vehicle (DMSO)
# Method: The KeratinoSens™ assay was originally developed to assess the skin sensitization potential of Nrf2 activation, but it has also been utilized to evaluate the ability of natural compounds to induce this transcription factor [46, 47]. In this study, we assessed the capacity of chalcones 1 and 2 to activate Nrf2 after 24 and 48 h (Figure 8A–F).
# (§1) Selected compounds (chalcones 1 and 2), and the positive control, DMF, were dissolved in sterile DMSO. Intermediate dilutions were prepared in culture medium, including the final concentration to be added to the 96-well plate, with a final volume of 200 µL per well. The KeratinoSens™ assay was conducted as previously described. In brief, cells were seeded at a density of 10,000 cells per well in 96-well white opaque plates (Greiner Bio-One GmbH, cat. no. 655083, Kremsmünster, Austria) and incubated for 24 h. The medium was then replaced with fresh medium containing 1% FBS and the test compounds, and cells were incubated for an additional 24 and 48 h. DMF was used as the positive control since it is a known Nrf2 activator. Cell viability was assessed in the same cells using resazurin. After 20 or 44 h of exposure to the test compounds, 50 µM of resazurin solution (in sterile PBS) was added to each well, and the plates were incubated for 4 h at 37 °C, 5% CO2 Following the resazurin incubation, the supernatant was transferred to a transparent 96-well plate, and absorbance was measured at 570 and 620 nm using a Synergy HT multi-mode microplate reader (BioTek, Bad Friedrichshall, Germany). To measure luciferase activity, cells in the white opaque 96-well plates were washed with 1× PBS. An equal volume of 1× PBS and lysis buffer (One-GLO Luciferase, cat. no. E6130, Promega, Madison, WI, USA) was added to the wells, and the plates were incubated for 20 min at room temperature. Luminescence was then measured using a FLUOstar OMEGA Microplate Reader (BMG Labtech GmbH, Ortenberg, Germany).
# Figure 8 Nrf2 activation using the KeratinoSens™ assay in HaCaT cells transfected with an Nrf2 luciferase reporter construct, incubated for 24 h (A–C) or 48 h (D–F) with chalcones 1 and 2. DMF was used as a positive control. Data represent the results from four independent experiments. Non-linear regression analysis was performed using GraphPad Prism v.9.0.0 for Windows. The blue line represents the results of cell viability (% regarding the control) and the green line represents fold induction. Statistical analysis: one ANOVA with Dunnett’s multiple comparisons test, where significance includes. * p < 0.05, ** p < 0.01, *** p < 0.0005, and **** p < 0.0001.
# [2] = test system: HaCaT keratinocytes; test: Resazurin cell viability assay in HaCaT keratinocytes; type: cell-based, human; settings: HaCaT, 24 h, significant effects only at 62.5 μM and 125 μM
# Method: (§2) To evaluate the effects of chalcones 1–7 on cell viability after 24 h, a resazurin assay was performed using two cell lines: human HaCaT keratinocytes (HaCaT, CLS 300493), representing the epidermal layer, and murine RAW 264.7 macrophages (RAW 264.7, ATCC TIB-71), which model immune cells involved in dermal inflammatory responses. For the keratinocyte cell line, all seven brominated and non-brominated chalcones were tested across a concentration range from 2.5 μM to 125 μM (Figure 2).
# (§3) Human keratinocytes (HaCaT, CLS 300493, Eppelheim, Germany) were cultured in DMEM supplemented with heat-inactivated FBS, and a penicillin and streptomycin antibiotic solution. The cell culture of keratinocytes was washed with 6 mL of phosphate buffer solution with 0.05% EDTA (Sigma-Aldrich, St. Louis, MO, USA) and detached using 3 mL of 0.05% trypsin + 0.02% EDTA in PBS solution when the cells reached 70–80% confluence in cell culture flasks. DMEM was also used to cultivate the mouse macrophage cell line (RAW 264.7, ATCC TIB-71, Manassas, VA, USA) together with 10% (v/v) non-inactivated FBS, 1.5 g/L sodium bicarbonate, and 100 U/mL penicillin and 100 μg/mL streptomycin stock (antibiotic solution). The macrophage culture was mechanically detached using a cell scraper, and the final amount of DMEM media with the cells was sub-cultured in a 1:10 ratio to the cellular suspension.
# (§4) The resazurin reduction assay was employed to evaluate the metabolic activity of human epidermal keratinocyte (HaCaT) and murine macrophage (RAW264.7) cell lines, as outlined in a previous study. In brief, HaCaT cells (1.0 × 10^5 cells/mL) and RAW264.7 cells (5.0 × 10^4 cells/mL) were seeded in 96-well plates (200 μL/well) and incubated overnight at 37 °C to allow for cell attachment. Following this, the cells were treated with different concentrations of the test compounds and kept at 37 °C for 24 h. After 20 h, resazurin (500 μM in sterile phosphate buffer solution, pH 7.4) was added to each well to achieve a final concentration of 50 μM, followed by an additional incubation of 4 h. Absorbance was then measured at wavelengths of 570 and 620 nm using a SpectraMax Plus 384 absorbance microplate spectrophotometer (Molecular Devices, San Jose, CA, USA). Each experiment was conducted in triplicate, with a minimum of three independent assays. The results were graphically presented as the percentage of cell viability versus chemical concentration, relative to the control.
# Figure 2 Cytotoxicity of chalcones 1–7 using a resazurin reduction assay in HaCaT cells by comparison with the control. Bar graphs represent the mean ± SEM of at least three independent experiments performed in triplicate. Statistical analysis: one ANOVA with Dunnett’s multiple comparisons test, where p < 0.05 was considered significant when compared to the control condition. * p < 0.05, ** p < 0.01, and *** p < 0.0005.
# [3] = test system: RAW 264.7 macrophages; test: Resazurin cell viability assay in RAW 264.7 macrophages; type: cell-based, murine; settings: RAW 264.7, 24 h, 2.5 to 125 μM
# Method: as §2
# To evaluate the cytotoxic effects of brominated and non-brominated chalcones 1–7 on macrophages, different concentration ranges were applied based on the response profiles previously observed for keratinocytes (Figure 3). […] For this set of chalcones, a similar tendency was observed: a lower cytotoxic characteristic of chalcone 4, which contained bromine atoms in both aromatic rings, compared to chalcones 5 (brominated in only the aromatic A ring) and 6 (non-brominated).
# as §3
# as §4, with “The results were graphically presented as the percentage of cell viability versus chemical concentration, relative to the control.” left out
# [4] = test system: HaCaT cells transfected with an Nrf2 luciferase reporter construct; test: Cell viability (resazurin) in KeratinoSens cells; type: cell-based, human
# Method: as §1, with “Germany). […]” for “Germany). To measure luciferase activity, cells in the white opaque 96-well plates were washed with 1× PBS. An equal volume of 1× PBS and lysis buffer (One-GLO Luciferase, cat. no. E6130, Promega, Madison, WI, USA) was added to the wells, and the plates were incubated for 20 min at room temperature.”, “Germany). […]” for “Germany).”
smiles,measurement,setting,value
COc1cc(Br)c(/C=C/C(=O)c2cc(OC)c(OC)cc2Br)cc1OC [Chalcone 1],Nrf2 mean fold induction,[1]; 7.5 µM,3.49 fold
same,fold induction at 5 µM,"[1]; Homo sapiens, 5 µM",3.18
same,fold induction at 7.5 µM,"[1]; Homo sapiens, 7.5 µM",~3.5
same,maximal reduction in viability,[2],≤ 25%
same,cytotoxicity towards macrophages,[3],no cytotoxicity
same,effect on cell viability,"[4]; 24 h, 5 µM and 7.5 µM",without affecting cell viability
same,effect on cell viability,[4]; 48 h,decrease in cell viability
